# Entries after “also recorded” stand apart in the source; their conditions may differ.
# Assays:
# [1] = Ex situ reduction of gold precursors by NADH to Au NPs, monitored by UV-vis spectra; settings: for formation of Au NPs / reduction to Au0 when mixed with NADH: gold precursor mixed with NADH, ex situ
# Procedure: Gold (III) chloride (AuCl3) and cofactors, NADH, NADPH and ATP, were purchased from Sigma/Aldrich (St. Louis, MO). Paraformaldehyde/glutaraldehyde fixative solution was purchased from Electron Microscopy Sciences (Hatfield, PA). Gold NPS were formed through reduction of the AuCl3 by cofactors. Briefly, 100 μM NADH solution in PBS, pH 7.4, was placed in a cuvette and mixed with aliquots of AuCl3 in the same buffer to achieve 4:1, 2:1, and equimolar NADH/precursor ratios, at room temperature under constant stirring. Oxidation of NADH and formation of Au NPs were recorded at 340 nm and 520 nm, respectively, by UV-vis spectra using CARY-50 spectrophotometer.
# AuCl3 was chosen as a precursor due to higher electron sinking capacity of Au (III) and higher stability as compared to Au(I) that can transform in vivo into Au(III) (Thakor et al., Nano Lett, 2011, 11: 4029-4036).
# [2] = system: living acute brain sections; test: In-situ gold nanoparticle biosynthesis in hypoxic living acute brain sections (staining, SAXS/WAXS, TEM); type: cell-based, mice C57BL/6J
# Procedure: All animal procedures and the brain slice preparation procedures were performed in accordance with the Institutional Animal Care and Use Committee at the University of Chicago. Experimental mice C57BL/6J (male, 17 days old, n=2) were anesthetized by intraperitoneal injection of ketamine-xylazine, decapitated, and had their brains quickly removed. The brains were placed to the ice-cold “cut” artificial cerebrospinal fluid (ACSF) solution (containing the following, in mM: 3 KCl, 26 NaHCO3, 1 NaH2PO4, 0.5 CaCl2), 3.5 MgSO4, 25 dextrose, 123 sucrose) for quick, less than 5 min, slicing on vibratome at a thickness of 450 μm. The sections then were placed into an oxygenated incubation ACSF solution (containing the following, in mM: 123 NaCl, 3 KCl, 26 NaHCO3, 1 NaH2PO4, 2 CaCl2), 6 MgSO4, 25 dextrose) for 40 min, maintained at 32-36° C. (Sadovsky et al., J Neurosci, 2013, 33:14048-676). Tissue was left to rest at room temperature for 30 min before hypoxic induction. Hypoxia was induced in brain slices (i.e., living acute brain sections) in an oxygen-deprived chamber for 5 min, while their opposite hemisphere counterparts were used as normally oxygenated controls.
# Three aliquots of aqueous AuCl3 were added to oxygen-deprived and oxygenated (control) brain slices to reach 100 μM-10 mM final concentrations of the precursor, incubated for 5 min, thoroughly rinsed (to ensure removal of precursor excess), and fixed using 2% glutaraldehyde+2% paraformaldehyde in 0.1M phosphate buffer, pH 7.4, and then stored in the same fixing solution at +5° C. before imaging and analyses.
# Before the beam experiment, brain slices were removed from the ACSF solution, and mounted by sealing them between two thin glass cover slides (Fisherfinest). In situ small-angle X-ray scattering (SAXS) and wide angle X-ray scattering (WAXS) (SAXS/WAXS) measurements were carried out at beamline 12-ID-B of the Advanced Photon Source (APS), Argonne National Laboratory. In situ SAXS data were analyzed by custom-built software that is run on Matlab after standard data correction including background correction.
# To isolate Au NPs, fixed brain slices were freeze-dried and mechanically grinded down. Then the NPs were extracted by DI water followed by separation of the biological debris via centrifugation (2000 rpm for 10 min). The NPs-containing supernatant were dropped onto an Ultrathin Carbon Cu transmission electron microscopy (TEM) grid with the Formvar pre-removed in toluene. Samples were allowed to set for about 1 hour and then rinsed by DI water. TEM analysis of the NPs was performed with a JEM-2100F field emission electron microscope (JEOL LTD, Tokyo, Japan) operated at 200 kV.
# Coronal 450 μm thick sections of the mouse brain were isolated and prepared by a technique that allows maintaining the integrity of the isolated brain functions for sufficient experimental time-lapse, as depicted in FIGS. 4A-D. (See Sadovsky et al., J Neurosci, 2013, 33: 14048-U14676). The prepared living brain slices were incubated in a chamber with oxygenated ACSF solution (containing the following, in mM: 123 NaCl, 3 KCl, 26 NaHCO3, 1 NaH2PO4, 2 CaCl2), 6 MgSO4, 25 dextrose) for 40 min, maintained at 32-36° C. (Sadovsky et al., J Neurosci, 2013, 33: 14048-14676). Tissue was left to rest at room temperature for 30 min before hypoxic induction. Hypoxia was induced in brain slices in an oxygen-deprived chamber for 5 min, while their opposite hemisphere counterparts were used as normally oxygenated controls. […]
compound,measurement,setting,value
"[Cl][Au] [AuCl, gold monochloride]",formation of Au NPs / reduction to Au0 when mixed with NADH,[1],reduced by NADH to Au^0
"O=C([O-])CC([S-])C(=O)[O-].[Au+].[Na+].[Na+] (stereo not drawn) [myochrysine, reference compound]",formation of Au NPs / reduction to Au0 when mixed with NADH,[1],yielded no Au NPs
Gold (III) chloride [AuCl3],staining indicative of Au NPs in brain slices,"[2]; hypoxic slices, 100 μM precursor, 5 min incubation",revealed staining localized mainly in the outer regions of the brain section; also recorded: pink staining mainly in the outer regions of the brain section
same,formation of Au NPs / staining in brain slices,"[2]; hypoxic slices, 10 mM precursor",significant dark staining
same,formation of Au NPs / staining in brain slices,"[2]; hypoxic slices, 10 mM precursor, listed as Au(III) precursor",formation of Au NPs took place only in hypoxic brain slices
same,formation of Au NPs / staining in brain slices,[2]; oxygenated (control) brain slices exposed to precursor,preserves its natural color
same,formation of Au NPs / staining in brain slices,"[2]; oxygenated (control) brain slices exposed to precursor, listed as Au(III) precursor",No Au NPs were detected
same,time of reaction after which pink color was detected by the naked eye,[1]; AuCl3/NADH molar ratio 1:4,20 min
same,time to appearance of new peak at 520 nm characteristic for Au NPs,[1]; AuCl3/NADH molar ratio 1:4,~7 min
same,oxidation of NADH (peak at 340 nm),"[1]; AuCl3/NADH molar ratio 1:4, NADH aqueous solution, UV-vis",immediate drop of the intensity of peak at 340 nm
"OC[C@H]1O[C@H]([S-])[C@H](O)[C@@H](O)[C@@H]1O.[Au+] [solganal, reference compound]",formation of Au NPs / reduction to Au0 when mixed with NADH,[1],yielded no Au NPs
"CC(=O)OC[C@H]1O[C@@H]([S-])[C@H](OC(C)=O)[C@@H](OC(C)=O)[C@@H]1OC(C)=O.CCP(CC)CC.[Au+] [auranofin, reference compound]",formation of Au NPs / reduction to Au0 when mixed with NADH,[1],yielded no Au NPs
